In data set [1] the test system is mitochondria. Description: Subcellular Ru content by ICP-MS. The class given is cell-based. The conditions noted are these: 20 μM, 12 h. On the procedure:
(§1) Figure 1. Validation of ATP5F1 as the molecular target of Ru5. (A) Proteins pulled down by streptavidin from A549 cells treated with Ru5a followed by PAL. The cells were treated with Ru5a (50 μM) for 12 h and irradiated with UV light for 20 min. (B) The top five peptides enriched by Ru5a-mediated PAL were identified with the assistance of SILAC-based chemoproteomic studies. H1F0: H1 histone family member 0; HIST4H4: histone cluster 4 H4; HIST3H2BB: histone cluster 3 H2B family member b; ATP5F1E: ATP synthase F1 subunit epsilon; HIST1H2AJ: histone cluster 1 H2A family member J. (C) Pull-down western blotting analysis of ATPase in A549 cells treated with Ru5a. (D) Cellular Ru content in cells treated with Ru5/Ru5a (20 μM, 12 h) measured by ICP-MS. (E) Impact of Ru5/Ru5a (10 μM) on the thermal stability of ATP5F1 measured by CETSA. (F) Impact on the anticancer activities of Ru5/Ru5a against wild type and ATPase knocking down (by siRNA) A549 cells. The relative cellular viability was calculated using the cells without drug treatment in each group as the control group. (G) Inhibition of Ru5/Ru5a on the enzymatic activity of ATPase. (-)-blebbistatin was used as the positive control. (H) Molecular docking of Ru5 with ATPase (PDB: 3ZIA). The red dashes indicate the hydrogen bonds formed between Ru5 and the amino acid residues (SER38 and GLN39). […]

A short description of data set [2]: Aqueous solubility by concentration-absorbance linearity. The conditions noted are these: PBS with 1% DMSO. Format: physicochemical.
From the text: Subsequently, the lipophilicity and aqueous solubility of Ru1–Ru9 were investigated.
Data set [3] deals with ATP5F1. Description: Cellular thermal shift assay (CETSA). The class given is cell-based. The conditions noted are these: 10 μM. On the procedure: as §1
For data set [4], the system named is malignant glioma (U87). As to the kind of experiment: MTT antiproliferative assay, U87. The class given is cell-based, human. The conditions noted are these: 72 h. The source says:
Ru3–Ru9 also show a certain selectivity for cancer cells over normal cells, and Ru2, Ru3, Ru5 and Ru9 show higher selectivity index (SI) values than the other complexes.
PA-BPP was then used to confirm the molecular targets of Ru5 by modifying it with a ‘minimalist’ biorthogonal handle-containing photo-cross-linker. Through our structure–activity relationship analysis and comparison with other ruthenium complexes utilizing phen as the auxiliary ligands with similar coordination structures (using cisplatin as a control), we propose that the β-carboline ligands play an important role in antiproliferative activity. To maintain the binding characteristics of the β-carboline moiety with the targeted biomolecules, we linked the photo-cross-linker to one of the auxiliary ligands of Ru5.
(In general: Formazan colour is commonly taken as a measure of viable cells.)

Data set [5] deals with A549 cells. Description: Wound healing and transwell migration assays. Format: cell-based, human. The conditions noted are these: 5 μM. The method, then:
Figure 4. Ru5 induces mitophagy and ferroptosis and inhibits EMT in vitro. (A) TEM images of A549 cells treated with vehicle (1% DMSO) or Ru5 (10 μM, 12 h). Red rectangles represent the region enlarged. Scale bar: 5 μm and 500 nm (enlarged). (B) The morphological examination of mitochondria in A549 cells treated with Ru5 (10 μM) for the indicated time intervals. MTG: λex = 514 nm; λem = 540 ± 20 nm. LTDR: λex = 633 nm; λem = 700 ± 20 nm. Scale bar: 20 μm. (C) Western blotting analysis showing the impact of Ru5 (24 h) on the expression of proteins related to mitochondrial dysfunction and ferroptosis. (D and E) The impact of different inhibitors on antiproliferative activity of Ru5 (24 h). (F) RT-qPCR analysis of EMT-related genes in A549 cells after Ru5 (10 μM, 12 h) treatment. (G) The impact of Ru5 (5 μM) on the migration of A549 cells was measured by a wound healing assay. Scale bar: 100 μm. (H) Quantitative analysis of the impact of Ru5 on wound healing. (I) Selective images of the impact of Ru5 (5 μM, 48 h) on the migration of A549 cells detected by transwell assay. Scale bar: 100 μm. […] Firstly, real-time quantitative polymerase chain reaction (RT-qPCR) experiments (Fig. 4F) confirm that Ru5 can down-regulate genes including CDH1 (cadherin 1), FN1 (fibronectin 1) and MMP2 (matrix metallopeptidase 2).

The target of data set [6] is ATPase (mitochondrial ATP synthase). Description: Inhibition of the enzymatic activity of ATPase in vitro. Format: biochemical. The conditions noted are these: read-out: Inhibition constant (Ki). On the procedure: as §1, with “GLN39). The yellow dashes indicate the hydrophobic interaction between Ru5 and the amino acid residues (ASN15 and GLN19). Data are presented as means ± SD from three independent experiments. TEXT PRINTED IN THE PICTURE: (B) Ru5a: Log2 (fold change) (Ru5a/DMSO): 1.43 (Protein name: H1F0); Log2 (fold change) (Ru5a/DMSO): 1.23 (Protein name: HIST4H4); Log2 (fold change) (Ru5a/DMSO): 1.22 (Protein name: HIST3H2BB); Log2 (fold change) (Ru5a/DMSO): 1.21 (Protein name: ATP5F1E); Log2 (fold change) (Ru5a/DMSO): 1.12 (Protein name: HIST1H2AJ) DOUBTS OF THE COPYIST ABOUT THIS PICTURE: Panel B: the table rows are proteins enriched by Ru5a, not separate substances.” for “GLN39).”

Consider 1 compound from publication PMC11304990, “Identification of mitochondrial ATP synthase as the cellular target of Ru-polypyridyl-β-carboline complexes by affinity-based protein profiling” (National Science Review, 2024).

Consider `F[P-](F)(F)(F)(F)F.F[P-](F)(F)(F)(F)F.[Ru+2].c1ccc2c(c1)[nH]c1c(-c3ncc[nH]3)nccc12.c1cnc2c(c1)ccc1cccnc12.c1cnc2c(c1)ccc1cccnc12` [Ru5], for which the “Subcellular location (cellular Ru content)” value in data set [1] is recorded as “mainly located in mitochondria”. Also, the “Linear relationship between absorbance and concentration up to” value in data set [2] is recorded as “at least 100 μM”. The “Thermal stability of ATP5F1” value in data set [3] is given as “increased”. In data set [4], this compound yielded an IC50 of 14.7 ± 0.7 µM. For the same compound, the “Migration rates of A549 cells” value in data set [5] was “markedly decrease”. Further, the Ki in data set [6] stood at 6.2 ± 1.4 µM.

As a reminder, the IC50 is the point on the concentration scale where inhibition reaches its midpoint. The Ki is the dissociation constant of the complex between target and ligand, obtained from inhibition or displacement.
